Here are results for one molecule from US12070464B2, “Methods of treating myeloproliferative disorders” (priority 2019, dated 2024).

Where two headings read alike, the source gives them in different places.

Data set [1] has as its system CD34+ cells isolated from the bone marrow of two healthy donors. Put plainly: Megakaryocyte differentiation and proliferation, alone and with ruxolitinib, 10 days (FACS). Format: cell-based. The note with it: 240 h. The source says:
The cells were then harvested for FACS analysis with live/dead stain and gating with CD34 (progenitor marker) and CD41a and CD42b (mature megakaryocyte markers).

The next data set deals with myelofibrosis patients. The conditions noted are these: cited from earlier work.

As to `N#CC[C@H](C1CCCC1)n1cc(-c2ncnc3[nH]ccc23)cn1` [Ruxolitinib, (R)-3-(4-(7H-pyrrolo[2,3-d]pyrimidin-4-yl)-1H-pyrazol-1-yl)-3-cyclopentylpropanenitrile phosphate, reference compound], the EC50 in data set [1] (10 days, Donor 1, percent of cells double positive for CD41a and CD42b, read-out: Megakaryocyte differentiation EC50) is 517 nM; in data set [1] (10 days, Donor 1, read-out: Megakaryocyte live count EC50), 312 nM; in data set [1] (10 days, Donor 1, read-out: Total live count EC50), 288 nM; in data set [1] (10 days, Donor 1, read-out: Viability EC50) it was 676 nM; in data set [1] (10 days, Donor 2, percent of cells double positive for CD41a and CD42b, read-out: Megakaryocyte differentiation EC50), 535 nM; in data set [1] (10 days, Donor 2, read-out: Megakaryocyte live count EC50), 258 nM. Moreover, the EC50 in data set [1] (10 days, Donor 2, read-out: Total live count EC50) was found to be 259 nM; in data set [1] (10 days, Donor 2, read-out: Viability EC50), 611 nM; in data set [1] (10 days, Mean of two donors, read-out: Megakaryocyte differentiation EC50) it was 526 nM; in data set [1] (10 days, Mean of two donors, read-out: Megakaryocyte live count EC50), 285 nM; in data set [1] (10 days, Mean of two donors, read-out: Viability EC50), 644 nM; in data set [1] (read-out: Total live count EC50 (overall cell proliferation)), 274 nM. Further, in the data set on myelofibrosis patients (Curr Hematol Malig Rep 2017), the “effect on mutant allele burden and bone marrow fibrosis” value was “does not affect the mutant allele burden or bone marrow fibrosis”. Besides, the “effect on red blood cell production and hemoglobin levels” value with myelofibrosis patients (in vivo) is “known to decrease red blood cell production and hemoglobin levels”.
